Measured values taken from US4163058A, “Derivatives of 5,5-diphenylhydantoin exhibiting enhanced solubility and the therapeutic use thereof” (INTERX Research Corporation, priority 1977, dated 1979).
Read-outs that look alike come from different tables or passages of the source. One block for each compound: values may come before it.

Legend:
[1] = in vivo, iv; cited from earlier work
[2] = in vivo; cited from earlier work
[3] = oral, sodium salt; due to alkalinity of the dosage form; cited from earlier work
[4] = aqueous solubility (compound added in increments to water until solubility was determined); assay type: physicochemical
Method: The compound was added in increments to water until solubility was determined.

[5] = cited from earlier work
[6] = aqueous; comparison value for the parent; cited from earlier work
[7] = 37° C.; cited from earlier work

Structure (SMILES): O=C1NC(=O)C(c2ccccc2)(c2ccccc2)N1.[Na]
precipitation and blood levels [1]: frequently leads to precipitation of 5,5-diphenylhydantoin as well as erractic blood levels
precipitation at the injection site and release [2]: precipitate 5,5-diphenylhydantoin at the injection site leading to delayed and erractic 5,5-diphenylhydantoin release
gastric irritation [3]: frequently causes gastric irritation

solubility ([4]; in water): > 100 mg/mL
increase in aqueous solubility over diphenylhydantoin ([4]; versus diphenylhydantoin per se): ~5,000 fold
Structure (SMILES): CN(C)CC(=O)OCN1C(=O)NC(c2ccccc2)(c2ccccc2)C1=O [3-(N,N-dimethylglycyloxymethyl)diphenylhydantoin methanesulfonate]

Structure (SMILES): O=C1NC(=O)C(c2ccccc2)(c2ccccc2)N1 [5,5-diphenylhydantoin]
release patterns ([5]; both in vitro and in vivo): often produces unpredictable and erractic release patterns
bioavailability ([5]; per se as well as from pharmaceutical dosage forms): low bioavailability
solubility of the parent specie [6]: less than 0.02 mg/ml
solubility [7]: less than 2 mg. in 100 ml
